In paper PMC7349657, “Efficient Targeted Degradation via Reversible and Irreversible Covalent PROTACs” (Journal of the American Chemical Society, 2020):
“And” between values parts separate entries of the source, which are not always exact repeats. Equal entries are not always repeated.

Biological target: BTK (Homo sapiens, UniProt Q06187)
Assay: BTK degradation in Mino cells, dose-response Western blot
Assay type: cell-based
Design: endogenous in cells; host or cells: Mino (ATCC CRL-3000), Ramos (ATCC CRL-1596), K562 (NCI-60)
Details: 24 h; for Dmax: MINO, read-out: Dmax (maximal degradation); for DC50: second-order polynomial fit
Method: We evaluated the ability of the compounds to induce degradation of BTK in human cell lines. We incubated Mino cells with the compounds and followed BTK levels after 24 h by Western blot (Figure 2, Supporting Figure 2). […] The irreversible acrylamides IR-1 and IR-2 and the cyanoacrylamide RC-3 followed closely with DC50’s under 10 nM and Dmax near 90%. […] We conducted metabolomics studies to estimate if cellular penetration and stability may contribute to the relative potencies (Supporting Table 2). NC-1 and RC-3 reached an effective concentration that was ∼2 times higher than IR-2 and ∼10 times higher than RC-2. Therefore, the lower potency of RC-2 can at least in part be explained by lower permeability or stability.
Figure 2 Efficient BTK degradation in cells. (A) Western blot evaluation of BTK levels in Mino cells in response to various concentrations of RC-2, IR-2, NC-1, and RC-3, after 24 h of incubation. (B) Quantification of BTK levels in (A) by normalization to the β-actin house-keeping gene in Mino cells. DC50 and Dmax were calculated by fitting the data to a second-order polynomial using Prism software. (C) Summary of the DC50 and Dmax values for the PROTACs in Mino cells described in (A) and Supporting Figure 2. TEXT PRINTED IN THE PICTURE: (C) NC-1: DC50 (nM): 2.2; Dmax (%): 97 | (C) IR-1: DC50 (nM): 8.6; Dmax (%): 91 | (C) IR-2: DC50 (nM): 1.9; Dmax (%): 88 | (C) RC-1: DC50 (nM): 10; Dmax (%): 68 | (C) RC-2: DC50 (nM): 35; Dmax (%): 66 | (C) RC-3: DC50 (nM): 6; Dmax (%): 85
Ramos (ATCC, CRL-1596), Mino (ATCC, CRL-3000), or K562 (NCI-60) cell lines were counted and diluted to 10^6 cell/mL, using 1 mL per well in a 24-well plate, and U2OS (ATCC HTB-96) cells overexpressing human BTK WT or C481S mutant were grown using 2 mL in a six-well plate (see Supporting Information). Cells were incubated with 1% DMSO or compound in indicated concentrations for 24 h unless indicated differently, or cells were left untreated. Lysates were prepared as previously described,[29] and samples were measured for total protein quantification by bicinchoninic acid (BCA) assay (#23225 ThermoFisher Scientific) supplemented with 4× loading buffer including 20 mM DTT, heated to 70 °C for 10 min, loaded into 4% SDS-PAGE gel, run for 45 min at 140 mV, then transferred into a nitrocellulose membrane (Biorad) using a Trans-Blot Turbo transfer system (Biorad). The membrane was stained with Ponceau (Sigma) to validate transfer for 10 min in gentle agitation then destained for 1 h with MQ water. The membrane was blocked with Licor blocking buffer (LIC927-70001) for 1 h, washed three times for 5 min with TBS-T, incubated with primary antibody BTK (D3H5) rabbit mAb (CST; 8547 S) overnight (16 h) at 4 °C, washed three times for 5 min with TBS-T, and incubated with primary antibody against β-actin (CST; 3700) for 1 h at 25 °C. Membrane was washed three times for 5 min with TBS-T, incubated with fluorescent secondary antibodies anti-mouse IgG Alexa Fluor 647 (CST: 4410S) and anti-rabbit-IgG IRDye 800(LICOR: 926-32211) for 1 h, then washed three times for 5 min with TBS-T, dried, and immediately imaged and analyzed using Licor Odyssey CLx. Prism (GraphPad) software was used to calculate degradation levels. We used second-order polynomial fits to estimate DC50 and Dmax values.

Chain of BTK (Q06187 whole entry): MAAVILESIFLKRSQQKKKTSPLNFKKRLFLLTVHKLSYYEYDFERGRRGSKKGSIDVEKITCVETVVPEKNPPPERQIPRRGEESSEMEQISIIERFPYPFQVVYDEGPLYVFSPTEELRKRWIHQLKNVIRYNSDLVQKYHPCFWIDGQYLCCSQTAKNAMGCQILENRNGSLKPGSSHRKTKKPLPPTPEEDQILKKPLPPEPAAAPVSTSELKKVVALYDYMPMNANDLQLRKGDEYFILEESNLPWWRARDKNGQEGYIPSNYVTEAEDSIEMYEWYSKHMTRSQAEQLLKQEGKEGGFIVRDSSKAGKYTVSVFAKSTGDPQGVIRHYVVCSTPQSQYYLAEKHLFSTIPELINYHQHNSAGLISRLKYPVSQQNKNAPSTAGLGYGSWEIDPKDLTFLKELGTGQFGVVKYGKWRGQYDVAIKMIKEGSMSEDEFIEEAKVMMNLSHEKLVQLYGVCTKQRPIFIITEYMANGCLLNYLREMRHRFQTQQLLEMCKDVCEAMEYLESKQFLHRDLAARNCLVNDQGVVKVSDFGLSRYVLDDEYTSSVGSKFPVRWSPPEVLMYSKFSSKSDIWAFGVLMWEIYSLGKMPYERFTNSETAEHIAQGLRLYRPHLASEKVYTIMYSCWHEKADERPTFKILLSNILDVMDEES

Dmax [%] | DC50 | Dmax (maximal degradation) [%] | Structure (SMILES)
66 |  |  | N#CC(=CCCCCOCCOCCOCCOCCOc1cccc2c1C(=O)N(C1CCC(=O)NC1=O)C2=O)C(=O)N1CCCC(n2nc(-c3ccc(Oc4ccccc4)cc3)c3c(N)ncnc32)C1 (centres unmarked) [RC-2]
~90 | < 10 nM and 6 nM | 85 | CC(C)(C=C(C#N)C(=O)N1CCCC(n2nc(-c3ccc(Oc4ccccc4)cc3)c3c(N)ncnc32)C1)CCCOCCOCCOCCOCCOc1cccc2c1C(=O)N(C1CCC(=O)NC1=O)C2=O (centres unmarked) [RC-3]

The next lines start with the molecule.

Structure (SMILES) | Dmax [%] | DC50 | Dmax (maximal degradation) [%]
Nc1ncnc2c1c(-c1ccc(Oc3ccccc3)cc1)nn2C1CCCN(C(=O)CCCCCCOCCOCCOCCOCCOc2cccc3c2C(=O)N(C2CCC(=O)NC2=O)C3=O)C1 (centres unmarked) [NC-1] | 97 | 2.2 nM | 
Nc1ncnc2c1c(-c1ccc(Oc3ccccc3)cc1)nn2C1CCCN(C(=O)C=CCCCCOCCOCCOCCOCCOc2cccc3c2C(=O)N(C2CCC(=O)NC2=O)C3=O)C1 (centres unmarked) [IR-2] | ~90 |  | 88
Nc1ncnc2c1c(-c1ccc(Oc3ccccc3)cc1)nn2C1CCCN(C(=O)C=CCOCCOCCOCCOCCOCCOc2cccc3c2C(=O)N(C2CCC(=O)NC2=O)C3=O)C1 (centres unmarked) [IR-1] | ~90 | < 10 nM and 8.6 nM | 91
